Reference: ChEMBL document CHEMBL1134662, “Selective, high affinity peptide antagonists of alpha-melanotropin action at human melanocortin receptor 4: their synthesis and biological evaluation in vitro” (J Med Chem, 2001)
Peptide text beside a SMILES is read from it.

Assays:
[1] = molecular target: Melanocortin receptor 3 (Homo sapiens, UniProt P41968)
Description: Binding affinity against human melanocortin receptor 3 (hMC3R) (concentration of the peptide at 50% specific binding)

[2] = molecular target: T1, Melanocortin receptor 5 (Homo sapiens, UniProt P33032)
Description: Binding affinity against human melanocortin receptor 5 (hMC5R) (concentration of the peptide at 50% specific binding)

[3] = molecular target: Melanocortin receptor 4 (Homo sapiens, UniProt P32245)
Sequence of Melanocortin receptor 4 (P32245 whole entry): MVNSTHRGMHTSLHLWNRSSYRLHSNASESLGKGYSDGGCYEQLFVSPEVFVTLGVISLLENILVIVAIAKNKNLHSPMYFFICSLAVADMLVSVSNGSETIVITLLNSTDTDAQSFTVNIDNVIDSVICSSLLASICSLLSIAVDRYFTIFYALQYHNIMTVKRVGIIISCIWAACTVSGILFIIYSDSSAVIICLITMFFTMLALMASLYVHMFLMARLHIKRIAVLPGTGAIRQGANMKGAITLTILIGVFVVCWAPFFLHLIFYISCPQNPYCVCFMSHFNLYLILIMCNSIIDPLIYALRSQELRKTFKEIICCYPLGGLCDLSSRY
Description: Binding affinity against human melanocortin receptor 4 (hMC4R) (concentration of the peptide at 50% specific binding)

[4] = molecular target: T1, Melanocortin receptor 5; assay: Signal transduction efficacy in cAMP assay in the CHO cells expressing human melanocortin receptor 5; type: functional, cell-based
[5] = molecular target: T1, Melanocortin receptor 5; assay: Increase in intracellular cAMP in CHO cells expressing human melanocortin receptor 5.; type: functional, cell-based

T1 sequence (P33032 whole entry): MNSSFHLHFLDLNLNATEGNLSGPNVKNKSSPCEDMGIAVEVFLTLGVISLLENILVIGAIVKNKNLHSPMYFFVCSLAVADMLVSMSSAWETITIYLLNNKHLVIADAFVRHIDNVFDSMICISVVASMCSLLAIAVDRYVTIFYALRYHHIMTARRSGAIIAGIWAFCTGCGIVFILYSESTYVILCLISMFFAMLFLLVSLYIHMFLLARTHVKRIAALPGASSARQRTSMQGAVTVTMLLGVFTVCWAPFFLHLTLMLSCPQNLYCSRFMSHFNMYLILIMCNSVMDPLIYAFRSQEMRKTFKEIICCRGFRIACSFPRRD
Sequence of Melanocortin receptor 3 (P41968 whole entry): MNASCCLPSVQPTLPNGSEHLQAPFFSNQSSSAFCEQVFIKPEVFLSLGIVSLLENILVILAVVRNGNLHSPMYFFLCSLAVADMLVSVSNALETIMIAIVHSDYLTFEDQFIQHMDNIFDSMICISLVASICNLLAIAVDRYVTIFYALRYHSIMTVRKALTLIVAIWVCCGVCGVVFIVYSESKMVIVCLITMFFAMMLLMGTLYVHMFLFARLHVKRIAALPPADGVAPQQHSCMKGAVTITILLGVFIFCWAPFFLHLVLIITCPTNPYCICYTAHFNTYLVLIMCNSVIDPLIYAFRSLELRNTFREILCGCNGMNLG

Structure (SMILES) | Ki [1] | Ki [2] | Ki [3] | Activation at 5 µM at 5nM [4] | Inhibition at 10nM [4] | EC50 [5] | EC50 ([5]; cho)
N=C(N)NCCC[C@@H]1NC(=O)[C@@H](Cc2ccc3ccccc3c2)NC(=O)CCC(=O)NCCCC[C@H](C(N)=O)NC(=O)[C@H](Cc2c[nH]c3ccccc23)NC1=O | 5900 nM | 4900 nM | 3800 nM | 7% | – | – | –
N=C(N)NCCC[C@@H]1NC(=O)[C@@H](Cc2ccc3ccccc3c2)NCC(=O)CC[C@H](C(N)=O)NC(=O)[C@@H](Cc2c[nH]c3ccccc23)NC1=O | – | – | – | – | 1% | – | –
N=C(N)NCCC[C@@H]1NC(=O)[C@@H](Cc2ccc3ccccc3c2)NC(=O)CCC(=O)NCCCC[C@@H](C(N)=O)NC(=O)[C@H](Cc2c[nH]c3ccccc23)NC1=O | 150 nM | 540 nM | 0.5 nM | – | – | 530 nM | –
CC(=O)N[C@H]1CSSC[C@@H](C(N)=O)NC(=O)CNC(=O)[C@H](Cc2c[nH]c3ccccc23)NC(=O)[C@H](CCCN=C(N)N)NC(=O)[C@@H](Cc2ccc3ccccc3c2)NC(=O)[C@H](Cc2c[nH]cn2)NC(=O)[C@H](CCC(=O)O)NC1=O | 2.6 nM | 0.39 nM | 0.57 nM | – | – | – | 0.22 nM
N=C(N)NCCC[C@@H]1NC(=O)[C@H](Cc2ccc3ccccc3c2)NC(=O)CCC(=O)NC2CCC(C(N)=O)N2C(=O)[C@@H](Cc2c[nH]c3ccccc23)NC1=O (stereo not given in full) | 3000 nM | 2500 nM | 600 nM | 3% | – | – | –
CCC1CC(=O)N[C@H](Cc2ccc3ccccc3c2)C(=O)N[C@@H](CCCN=C(N)N)C(=O)N[C@@H](Cc2c[nH]c3ccccc23)C(=O)N[C@H](C(N)=O)CCCCNC1=O (stereo in doubt; 17) | 120 nM | 140 nM | 0.58 nM | – | – | – | 240 nM
N=C(N)NCCC[C@@H]1NC(=O)[C@@H](Cc2ccc3ccccc3c2)NC(=O)[C@H](Cc2cnc[nH]2)NC(=O)[C@@H](N)CC(=O)NCCCC[C@@H](C(N)=O)NC(=O)[C@H](Cc2c[nH]c3ccccc23)NC1=O | 14 nM | 18 nM | 1.6 nM | – | – | 18 nM | –
N=C(N)NCCC[C@@H]1NC(=O)[C@@H](Cc2ccc3ccccc3c2)NC(=O)CCC(=O)NC[C@@H](C(N)=O)NC(=O)[C@H](Cc2c[nH]c3ccccc23)NC1=O | 1500 nM | 4800 nM | 110 nM | – | – | – | > 5000 nM
CCC1CC(=O)N[C@H](Cc2ccc3ccccc3c2)C(=O)N[C@@H](CCCN=C(N)N)C(=O)N[C@@H](Cc2c[nH]c3ccccc23)C(=O)N[C@H](C(N)=O)CCCCNC1=O (stereo in doubt; 18) | 240 nM | 400 nM | 1.5 nM | – | – | – | 220 nM
N=C(N)NCCC[C@@H]1NC(=O)[C@@H](Cc2ccc3ccccc3c2)NCC(=O)CC[C@@H](C(N)=O)NC(=O)[C@H](Cc2c[nH]c3ccccc23)NC1=O | 5900 nM | 5000 nM | 960 nM | – | – | – | –
CC(=O)N[C@H]1CC(=O)NCCCC[C@@H](C(N)=O)NC(=O)[C@H](Cc2c[nH]c3ccccc23)NC(=O)[C@H](CCCNC(=N)N)NC(=O)[C@@H](Cc2ccc3ccccc3c2)NC1=O | 190 nM | 720 nM | 4.3 nM | – | – | 1000 nM | –
N=C(N)NCCC[C@@H]1NC(=O)[C@@H](Cc2ccc3ccccc3c2)NC(=O)CCC(=O)NCC[C@@H](C(N)=O)NC(=O)[C@H](Cc2c[nH]c3ccccc23)NC1=O | 3000 nM | 2700 nM | 58 nM | – | – | – | –
CC(=O)N[C@H]1CSSC[C@@H](C(=O)N2CCC[C@H]2C(=O)N2CCC[C@H]2C(=O)N[C@@H](CCCCN)C(=O)N[C@@H](CC(=O)O)C(N)=O)NC(=O)CNC(=O)[C@H](Cc2c[nH]c3ccccc23)NC(=O)[C@H](CCCN=C(N)N)NC(=O)[C@@H](Cc2ccc(Cl)c(Cl)c2)NC(=O)[C@H](Cc2c[nH]cn2)NC(=O)[C@H](CCC(=O)O)NC1=O | 20 nM | 22 nM | 2.2 nM | – | – | 73 nM | –
N=C(N)NCCC[C@@H]1NC(=O)[C@@H](Cc2ccc3ccccc3c2)NC(=O)CCC(=O)NCCC[C@@H](C(N)=O)NC(=O)[C@H](Cc2c[nH]c3ccccc23)NC1=O | 56 nM | 130 nM | 0.37 nM | – | – | 300 nM | –
CC(=O)N[C@H]1CSSC[C@@H](C(=O)N2CCC[C@H]2C(=O)N2CCC[C@H]2C(=O)N[C@@H](CCCCN)C(=O)N[C@@H](CC(=O)O)C(N)=O)NC(=O)CNC(=O)[C@H](Cc2c[nH]c3ccccc23)NC(=O)[C@H](CCCNC(=N)N)NC(=O)[C@@H](Cc2ccc3ccccc3c2)NC(=O)[C@H](Cc2c[nH]cn2)NC(=O)[C@H](CCC(=O)O)NC1=O (HELM PEPTIDE1{[ac].C.E.H.[O=C([C@@H](Cc1ccc2ccccc2c1)N[*:1])[*:2]].R.W.G.C.P.P.K.D.[am]}$PEPTIDE1,PEPTIDE1,2:R3-9:R3$$$V2.0) | 25 nM | 16 nM | 1.5 nM | – | – | 42 nM | –
N=C(N)NCCC[C@@H]1NC(=O)[C@@H](Cc2ccc3ccccc3c2)NC(=O)[C@H](Cc2c[nH]cn2)NC(=O)CCC(=O)NCCCC[C@@H](C(N)=O)NC(=O)[C@H](Cc2c[nH]c3ccccc23)NC1=O | 47 nM | 150 nM | 0.88 nM | – | – | 170 nM | –
N=C(N)NCCC[C@@H]1NC(=O)[C@@H](Cc2ccc3ccccc3c2)NC(=O)CCC(=O)NCCCC[C@H](C(N)=O)NC(=O)[C@@H](Cc2c[nH]c3ccccc23)NC1=O | 5900 nM | 4900 nM | 1300 nM | 0% | – | – | –
N=C(N)NCCC[C@H]1NC(=O)[C@@H](Cc2ccc3ccccc3c2)NC(=O)CCC(=O)NCCCC[C@H](C(N)=O)NC(=O)[C@@H](Cc2c[nH]c3ccccc23)NC1=O | 5900 nM | 7000 nM | 3700 nM | 5% | – | – | –
N=C(N)NCCC[C@@H]1NC(=O)[C@@H](Cc2ccc3ccccc3c2)NC(=O)[C@@H](N)CC(=O)NCCCC[C@@H](C(N)=O)NC(=O)[C@H](Cc2c[nH]c3ccccc23)NC1=O | 420 nM | 24 nM | 4 nM | – | – | 200 nM | –
N=C(N)NCCC[C@@H]1NC(=O)[C@@H](Cc2ccc3ccccc3c2)NC(=O)[C@H](Cc2c[nH]cn2)NCC(=O)CC[C@@H](C(N)=O)NC(=O)[C@H](Cc2c[nH]c3ccccc23)NC1=O | 2900 nM | 2400 nM | 420 nM | – | – | – | > 5000 nM
N=C(N)NCCC[C@@H]1NC(=O)[C@H](Cc2ccc3ccccc3c2)NC(=O)CCC(=O)NCC[C@H](C(N)=O)NC(=O)[C@@H](Cc2c[nH]c3ccccc23)NC1=O | – | – | – | 13% | – | – | –
N=C(N)NCCC[C@@H]1NC(=O)[C@@H](Cc2ccc3ccccc3c2)NC(=O)[C@H](Cc2c[nH]cn2)NC(=O)CCC(=O)NC[C@@H](C(N)=O)NC(=O)[C@H](Cc2c[nH]c3ccccc23)NC1=O | 29 nM | 65 nM | 0.26 nM | – | – | 210 nM | –
